How the values were obtained:
[1] = Bleeding events (ISTH definition) in NVAF patients receiving apixaban; association by odds ratio; type: in vivo, human
Procedure: The severity of bleeding was evaluated based on the definition provided by the International Society on Thrombosis and Hemostasis. In brief, events leading to a reduction in hemoglobin levels by at least 2 g/dL, fatal bleeding, or events occurring in critical body locations were considered major bleeding events. Events that required hospitalization, medical or surgical intervention, or a change in antithrombotic treatment were considered clinically relevant non-major. Any acute bleeding event not meeting the criteria for major or clinically relevant non-major bleeding was classified as a minor bleeding episode.
In all enrolled patients, allele-specific real-time PCR was used to identify polymorphic variants of ABCB1 (rs1045642 3435C>T, rs2032582 2677G>T/A, rs1128503 1236C>T), CYP3A4*22 (rs35599367), and CYP3A5*3 (rs776746, 6986A>G). Commercial kits (OOO Syntol, Moscow, Russia) were employed on a CFX96 Touch™ Real-Time PCR Detection System (Bio-Rad, Hercules, CA, USA).
The study data were subjected to statistical processing using both parametric and nonparametric methods. Statistical analyses were performed with the standard software package StatSoft Statistica 10.0 (Dell, Round Rock, TX, USA). Quantitative variables were assessed for normality using the Kolmogorov–Smirnov test (for sample sizes > 50), as well as by evaluating skewness and kurtosis. For quantitative variables with a normal distribution, the data were organized into variational series, and arithmetic means (M) with standard deviations (SD) were calculated. Comparisons of means in normally distributed quantitative datasets were performed using Student’s t-test, with obtained values evaluated against critical thresholds. For categorical variables, differences in frequency distributions were assessed using the χ^2 test, and Fisher’s exact test was applied when the number of observations was small. To quantify the effect of genetic markers on complication occurrence, odds ratios (ORs) with 95% confidence intervals (CIs) were calculated. Statistical significance for all analyses was defined at p < 0.05. For genetic analyses, multiple-testing correction was performed using the Benjamini–Hochberg false discovery rate (FDR) procedure.

[2] = cited from earlier work

Compound	Association with incidence of bleeding events ([1]; simvastatin (n = 8) as co-medication with apixaban)	Bleeding event in the context of surgery ([1]; both, human, in vivo) [case]	Epistaxis ([1]; both, human, in vivo) [cases]	Gastrointestinal bleeding ([1]; both, human, in vivo) [cases]	Hematomas and ecchymoses ([1]; both, human, in vivo) [cases]	Peptic ulcer exacerbation ([1]; both, human, in vivo) [case]	Uterine bleeding ([1]; both, human, in vivo) [case]	OR of bleeding events by sex ([1]; both, human, in vivo, 1.95 years)	Interindividual variability in exposure [2] [%]	Intraindividual variability in exposure [2]
CCC(C)(C)C(=O)O[C@H]1C[C@@H](C)C=C2C=C[C@H](C)[C@H](CC[C@@H]3C[C@@H](O)CC(=O)O3)[C@H]21 [simvastatin]	did not show an increase in incidence of bleeding events									
COc1ccc(-n2nc(C(N)=O)c3c2C(=O)N(c2ccc(N4CCCCC4=O)cc2)CC3)cc1 [apixaban]		1	31	3	3	1	1	1.119	~30	approximately 20%

Source: publication PMC12562637 (Genes, 2025)
